We go through three molecules from patent US12616203B2, “Use of 3-isoxazolidinones compounds as selective herbicides” (FMC Corporation, priority 2014, dated 2026).

One data set relates to Italian ryegrass. In words: Ex36 POST 2,4-DC + metsulfuron-methyl, % control 28 DAT, Colby. Format: in vivo, Lolium perenne L. ssp. multiflorum. From the text: Crops screened were wheat and barley.
The test system of the next data set is wheat. The data set is described as follows: Ex40 POST 2,4-DC + metsulfuron-methyl, crop injury 7 DAT. Format: in vivo. Conditions: POST. On the procedure:
(§1) Treatments were applied to barley and wheat crops.
(§2) Non-ionic surfactant (NIS) was added to all treatments at 0.5% v/v. All plant species were direct seeded into 3″ plastic pots using metro-mix as growth media. At treatment common lambsquarters was 1.75″, common chickweed was 2″, wild mustard was 2.25″, wild oat was 5.5″, wild buckwheat was 2-5″, Italian ryegrass was 2-3″, wheat was 5.5″ and barley was 4.5″ in height. Plants were watered well before application and not watered 24 h after application. Plants were watered and fertilized routinely after treatment application. Each treatment was replicated four times. Treated flats were placed in randomized block design in the greenhouse.

The subject of the next data set is Barley. Described as above. Format: in vivo. Conditions: POST. On the procedure: as §1, §2
A further data set relates to weeds; barley and wheat. The data set is described as follows: Ex40 POST greenhouse. Format: in vivo. Conditions: rate in the words. Here is the method:
as §1, §2

Data set [1] deals with weeds. In words: Ex16 PRE greenhouse. The settings on record: weed and rate in the words. Format: in vivo. From the text: To determine PRE efficacy, five levels of 2,4 DC (36.7% CS) 0, 125, 170, 210, or 250 g ai/ha and five levels of pyroxasulfone (KIH485-85WG) 0, 50, 65, 80, or 95 g ai/ha were applied either alone or as tank-mix. Additional treatments consisted of premix of pyroxasulfone plus fluthiacet-methyl (Anthem™ 23.3%) at 169.9 g ai/ha, S-metolachlor (Dual II Magnum, 82.4%) at 1388 g, and tank-mix of mesotrione (Callisto, 40%) at 123 g plus S-metolachlor at 1252 g. […] Treatments were applied before the emergence of black nightshade, giant foxtail, green foxtail, yellow foxtail, large crabgrass, kochia, redroot pigweed, common ragweed, and barnyardgrass.
Flats were watered and fertilized routinely after treatment application. Each treatment was replicated three times.

Data set [2] deals with Wild buckwheat. In words: Ex15 PRE 2,4-DC + S-metolachlor, % control 28 DAT, Colby. Format: in vivo, Polygonum convolvulus. From the text: (§3) The weeds tested in this study were redroot pigweed (Amaranthus retroflexus, AMARE), Jimsonweed (Datura stramonium, DATST), black nightshade (Solanum nigrum, SOLNI), large crabgrass (Digitaria sanguinalis, DIGSA), Pennsylvania smartweed (Polygonum pensylvanicum, POLPY), horseweed (Conyza canadensis, ERICA), wild buckwheat (Polygonum convolvulus, POLCO). The crop tested was Corn (var. Viking).
(§4) To determine PRE efficacy and corn injury, five rates of each 2,4 DC (36.7% CS) and S-metolachlor (Dual II Magnum®, 82.4%) were applied either alone or as tank-mix. 2,4 DC was applied at 0, 125, 170, 210, or 250 g ai/ha and S-metolachlor was applied at 0, 267, 534, 801, or 1070 g ai/ha. Additional treatments included application of premix of pyroxasulfone plus fluthiacet-methyl (Anthem™ 23.3%) at 169.9 g ai/ha and tank-mix of mesotrione (Callisto®, 40%) at 123 g plus S-metolachlor at 1252 g. Treatments were applied just after the planting of large crabgrass, Jimsonweed, black nightshade, redroot pigweed, Pennsylvania smartweed, horseweed, wild buckwheat, and corn.
(§5) Flats were watered and fertilized routinely after treatment application. Each treatment was replicated three times. […] Corn injury was rated for bleaching and stunting.

Data set [3] concerns weeds; Corn (var. Viking). In words: Ex15 PRE greenhouse. Conditions: rate in the words. Format: in vivo.
From the text: as §3, §4, §5

The next data set concerns jimsonweed. The data set is described as follows: Ex15 PRE 2,4-DC + S-metolachlor, % control 28 DAT, Colby. The data set is classed as in vivo, Datura stramonium.
From the text: as §3, §4, §5

In the next data set the test system is weeds; Corn. In words: Ex25 PRE greenhouse. The data set is classed as in vivo. The settings on record: rate in the words. From the text: The crop tested in this study was Corn.
2,4 DC-21 (36.7% CS) was applied PRE at 0, 125, 170, 210, or 250 g ai/ha alone or as a tank-mix with pyroxasulfone (KIH-485, 85% WP) at 0, 50, 65, 80, or 95 g ai/ha. Pyroxasulfone plus fluthiacet-methyl (Anthem™, 23.3%) applied at 169.9 g ai/ha, s-metolachlor (Dual II Magnum®, 82.4%) applied at 1389 g, and the tank-mix of mesotrione (Callisto®, 40%) at 123 g plus s-metolachlor (Dual II Magnum®, 82.4%) at 1252 g were included as a standards for comparison. […] Thereafter flats were watered and fertilized routinely.

The next data set relates to Black nightshade. In words: Ex15 PRE 2,4-DC + S-metolachlor, % control 28 DAT, Colby. Format: in vivo, Solanum nigrum.
From the text: as §3, §4, §5

Data set [4] relates to weeds. The data set is described as follows: Ex10 PRE greenhouse. The settings on record: 28 DAT, weed and rate in the words. The data set is classed as in vivo. From the text:
Treatments 1-12 of 2,4-DC and aclonifen tank-mix combinations follow same rates listed above. […] Sulfentrazone (Spartan 4F® 39.6%) at 280 g ai/ha, pendimethalin (Prowl 3.3®EC, 37.4%) at 784 g ai/ha, or S-metolachlor (Dual II Magnum® 82.4%) at 1084 g ai/ha were applied as commercial standards. Treatments were replicated 3 times and flats were watered after planting but before the treatment and lightly watered after treatment application. Thereafter flats were watered and fertilized routinely. […] Shepherd's-purse was rated at 21 and 28 DAT only, due to delayed emergence.

Data set [5] has as its system weeds. The data set is described as follows: Ex22 PRE greenhouse. The data set is classed as in vivo. Conditions: 28 DAT, weed and rate in the words. From the text:
2,4 DC (36.7% CS) was applied PRE at 0, 125, 170, 210, or 250 g ai/ha alone or as a tank-mix with S-metolachlor (Dual II Magnum®, 82.4%) at 0, 267, 534, 801, or 1070 g ai/ha. Pyroxasulfone plus fluthiacet-methyl (Anthem™, 23.3%) applied at 169.9 g ai/ha, and the tank-mix of mesotrione (Callisto®, 40%) at 123 g plus S-metolachlor (Dual II Magnum®, 82.4%) at 1252 g were included as a standards for comparison.
Thereafter flats were watered and fertilized routinely. Each treatment was replicated three times.

The subject of data set [6] is weeds. In words: Ex21 PRE greenhouse. The data set is classed as in vivo. The settings on record: 28 DAT, weed and rate in the words. From the text:
2,4 DC (36.7% CS) was applied PRE at 0, 125, 170, 210, or 250 g ai/ha alone or as a tank-mix with S-metolachlor (Dual II Magnum®, 82.4%) at 0, 267, 534, 801, or 1070 g ai/ha. Pyroxasulfone plus fluthiacet-methyl (Anthem™, 23.3%) applied at 169.9 g ai/ha, and the tank-mix of mesotrione (Callisto®, 40%) at 123 g plus S-metolachlor (Dual II Magnum®, 82.4%) at 1252 g were included as standards for comparison. […] Thereafter flats were watered and fertilized routinely. Each treatment was replicated three times.

The subject of the next data set is Pennsylvania smartweed. The data set is described as follows: Ex15 PRE 2,4-DC + S-metolachlor, % control 28 DAT, Colby. Format: in vivo, Polygonum pensylvanicum.
From the text: as §3, §4, §5

Data set [7] concerns weeds. In words: Ex18 PRE greenhouse. Format: in vivo. The settings on record: weed and rate in the words. The text has this:
Additional treatments included application of metazachlor (Butisan®, 43.1%) at 750 g ai/ha, napropamide (Devrinol DF®, 50%) at 1260 g ai/ha, and dimethachlor (Teridox®, 48%) at 1000 g ai/ha. […] Treatments were applied just after the seeding of annual bluegrass, cheat, wild oat, quackgrass, field violet, blackgrass, littleseed canarygrass, silky windgrass, yellow foxtail, and goosegrass. […] Flats were watered and fertilized routinely after treatment application. Each treatment was replicated three times.

The subject of the next data set is Littleseed canarygrass. The data set is described as follows: Ex34 PRE 2,4-DC + napropamide, % control, Colby. Format: in vivo, Phalaris minor. The settings on record: 28 DAT. From the text:
(§6) Thereafter flats were watered and fertilized routinely.

The subject of another data set is Annual bluegrass. The data set is described as follows: Ex34 PRE 2,4-DC + napropamide, % control, Colby. The data set is classed as in vivo, Poa annua. Conditions: 28 DAT.
From the text: as §6

Data set [8] concerns Wild buckwheat. In words: Ex34 PRE 2,4-DC + napropamide, % control, Colby. Format: in vivo, Polygonum convolvulus. The settings on record: 28 DAT.
From the text: as §6

In the next data set the test system is Common lambsquarters. The data set is described as follows: Ex34 PRE 2,4-DC + napropamide, % control, Colby. Format: in vivo, Chenopodium album. The settings on record: 28 DAT.
From the text: as §6

The next data set has as its system weeds; canola. The data set is described as follows: Ex34 PRE greenhouse. Format: in vivo. Conditions: rate in the words.
From the text: as §6

The next data set has as its system Blackgrass. In words: Ex34 PRE 2,4-DC + napropamide, % control, Colby. The data set is classed as in vivo, Alopecurus myosuroides. The settings on record: 28 DAT.
From the text: as §6

Setting [9] is: S-metolachlor alone 267 g ai/ha.
Setting [10] is: S-metolachlor alone 534 g ai/ha.
Setting [11] is: S-metolachlor alone 801 g ai/ha.
The mark [12] stands for this setting: S-metolachlor alone 1070 g ai/ha.

Structures are written as SMILES.

`COC(=O)c1ccccc1S(=O)(=O)NC(=O)Nc1nc(C)nc(OC)n1` [Metsulfuron-methyl, metsulfuron-methyl, reference compound]: the Y was 6% with Italian ryegrass (metsulfuron-methyl alone 6 g ai/ha), 18% with Italian ryegrass (metsulfuron-methyl alone 9 g ai/ha) and 16% in the data set on Italian ryegrass (metsulfuron-methyl alone 12 g ai/ha). Also, the “Y (% crop injury, metsulfuron-methyl alone)” value is 1% in the data set with wheat (metsulfuron-methyl 2 g ai/ha); 0% with wheat (metsulfuron-methyl 3 g ai/ha); 2% in the data set with wheat (metsulfuron-methyl 4 g ai/ha); 5% in the data set with Barley (metsulfuron-methyl 2 g ai/ha); 7% in the data set with Barley (metsulfuron-methyl 3 g ai/ha); 9% in the data set with Barley (metsulfuron-methyl 4 g ai/ha). Moreover, the “weed control / crop safety in words” value in the data set with weeds; barley and wheat is “alone controlled wild buckwheat, common chickweed, wild mustard, and common lambsquarters at all rates and was safe on both crops at all rates”.

Turning to `CCc1cccc(C)c1N(C(=O)CCl)[C@@H](C)COC` [S-metolachlor, reference compound], the “weed control in words” value with weeds [1] is “controlled black nightshade, redroot pigweed, barnyardgrass, large crabgrass, and all three foxtail species”; in the data set on weeds [4] it was “at 1064 g controlled only two weeds”; in the data set on weeds [5], “applied alone controlled Johnsongrass and goosegrass at all rates and controlled Benghal dayflower, prickly sida and common lambsquarters at 801 g”; with weeds [6] it was “applied alone controlled yellow foxtail, green foxtail, and barnyardgrass at all rates, quackgrass or common chickweed at ≥534 g, and common lambsquarters at ≥801 g”. Besides, the Y in the data set on Wild buckwheat [2] (setting [9]) is 33%; in the data set with Wild buckwheat [2] (setting [10]) it was 65%; with Wild buckwheat [2] (setting [11]) it was 82%; in the data set on Wild buckwheat [2] (setting [12]) it was 85%; with jimsonweed (setting [9]), 17%; in the data set on jimsonweed (setting [10]), 17%. Besides, the Y in the data set with jimsonweed (setting [11]) came to 23%; in the data set with jimsonweed (setting [12]) it was 28%; in the data set with Black nightshade (setting [9]), 46%; in the data set with Black nightshade (setting [10]) it was 85%; in the data set on Black nightshade (setting [11]), 90%; in the data set with Black nightshade (setting [12]), 95%. In addition, the Y is listed as 75% with Pennsylvania smartweed (setting [9]), 95% in the data set on Pennsylvania smartweed (setting [10]), 100% with Pennsylvania smartweed (setting [11]) and 100% in the data set with Pennsylvania smartweed (setting [12]). For the same molecule, the “weed control / crop safety in words” value was “alone gave control of all species at different rates except Jimsonweed” in [3]; “controlled only black nightshade and also caused severe stunting to corn” in the data set on weeds; Corn.

For the molecule `CCN(CC)C(=O)C(C)Oc1cccc2ccccc12` (stereo not shown) [napropamide, reference compound], in the data set with weeds [7], the “weed control in words” value is reported as “controlled all weeds except blackgrass”. Also, the Y is reported as 50% in the data set on Littleseed canarygrass (Napropamide alone 315 g ai/ha); 87% with Littleseed canarygrass (Napropamide alone 630 g ai/ha); 100% with Littleseed canarygrass (Napropamide alone 1260 g ai/ha); 1% with Annual bluegrass (Napropamide alone 315 g ai/ha); 77% with Annual bluegrass (Napropamide alone 630 g ai/ha); 92% with Annual bluegrass (Napropamide alone 1260 g ai/ha). Moreover, the Y with Wild buckwheat [8] (Napropamide alone 315 g ai/ha) worked out at 23%; with Wild buckwheat [8] (Napropamide alone 630 g ai/ha), 23%; in the data set on Wild buckwheat [8] (Napropamide alone 1260 g ai/ha), 38%; with Common lambsquarters (Napropamide alone 315 g ai/ha), 50%; in the data set on Common lambsquarters (Napropamide alone 630 g ai/ha), 73%; with Common lambsquarters (Napropamide alone 1260 g ai/ha) it was 91%. The Y amounted to 5% with Blackgrass (Napropamide alone 315 g ai/ha), 7% in the data set on Blackgrass (Napropamide alone 630 g ai/ha) and 15% in the data set with Blackgrass (Napropamide alone 1260 g ai/ha). Besides, the “weed control / crop safety in words” value in the data set on weeds; canola is “alone at 630 g controlled littleseed canarygrass, at 1260 g controlled common lambsquarters, annual bluegrass and Italian ryegrass and was safe on canola at all rates”.
